Measurements: patent publication US11439148B2, “Pyrimidine derivatives” (SYNGENTA PARTICIPATIONS AG, priority 2017, dated 2022)
Where “and” joins values, the source holds several entries; their conditions need not be identical. Equal entries are not always repeated.

How the values were obtained:
Assay type in all cases: in vivo
[1] = system: Abutilon theophrasti (ABUTH); assay: Adjuvant efficacy with nicosulfuron, glasshouse spray test; settings: nicosulfuron WG, mean over 15 and 60 g/ha and 3 replicates; adjuvant 0.2% v/v (none in No Adjuvant rows); % leaf area killed, 21 days after application; Tests 1-4 separate runs
Method: (§1) The efficacy of adjuvants 1-12 as adjuvants for the herbicide nicosulfuron were tested in a glasshouse against four weed species sown into standard soil in pots and cultivated under controlled conditions in a glasshouse (at 24/18° C. day/night; 16 hours light; 65% humidity). Nicosulfuron was added to the spray tank as a standard WG (water dispersible granule) formulation.
(§2) The spray tests were also carried out using nicosulfuron in conjunction with adjuvants 1-12. The adjuvant was added to the spray solution at a rate of 0.2% v/v. All spray solutions also contained 12.5% v/v of iso-Propanol. The weed species and their BBCH growth stage at spraying were Abutilon theophrasti (ABUTH; growth stage 13), Chenopodium album (CHEAL; growth stage 13-14), Digitaria sanguinalis (DIGSA; growth stage 11), and Setaria viridis (SETVI; growth stage 13). Each spray test was replicated three times. The test plants were then grown in a glasshouse under controlled conditions (at 24/18° C. day/night; 16 hours light; 65% humidity) and watered twice a day. The efficacy of the herbicide was assessed visually and expressed as a percentage of the leaf area killed. Samples were assessed at a time period of 21 days following application. The results shown in Table 1 below are mean averages over the two rates of nicosulfuron, and the three replicates.

[2] = system: Chenopodium album (CHEAL); assay: as above; settings: nicosulfuron WG, mean over 15 and 60 g/ha and 3 replicates; adjuvant 0.2% v/v (none in No Adjuvant rows); % leaf area killed, 21 days after application; Tests 1-4 separate runs
Method: as §1, §2

[3] = system: Digitaria sanguinalis (DIGSA); assay: as above; settings: nicosulfuron WG, mean over 15 and 60 g/ha and 3 replicates; adjuvant 0.2% v/v (none in No Adjuvant rows); % leaf area killed, 21 days after application; Tests 1-4 separate runs
Method: as §1, §2

[4] = system: Setaria viridis (SETVI); assay: as above; settings: nicosulfuron WG, mean over 15 and 60 g/ha and 3 replicates; adjuvant 0.2% v/v (none in No Adjuvant rows); % leaf area killed, 21 days after application; Tests 1-4 separate runs
Method: as §1, §2

[5] = system: Brachiaria platyphylla (BRAPP); assay: Adjuvant efficacy with mesotrione, glasshouse spray test; settings: mesotrione SC, mean over 30 and 60 g/ha and 3 replicates; adjuvant 0.2% v/v (none in No Adjuvant rows); % leaf area killed, 21 days after application; Tests 1-3 separate runs
[6] = system: weed species BRAPP, COMBE, DIGSA, POLCO; assay: Adjuvant efficacy with mesotrione, glasshouse spray test, average over all species (BRAPP set); settings: mesotrione SC, mean over 30 and 60 g/ha; adjuvant 0.2% v/v (none in No Adjuvant rows); 21 days; Tests 1-3, species set with BRAPP (COMBE only in Test 2)
Method: The efficacy of adjuvants 1-12 as an adjuvant for the herbicide mesotrione was tested in a glasshouse against four weed species sown into standard soil in pots and cultivated under controlled conditions in a glasshouse (at 24/18° C. day/night; 16 hours light; 65% humidity). Mesotrione was added to the spray tank as a standard SC (suspension concentrate) formulation.
The spray tests were also carried out using mesotrione in conjunction with adjuvants 1-12. The adjuvants were added to the spray solution at a rate of 0.2% v/v unless otherwise stated. All spray solutions also contained 10% w/w of iso-Propanol. The weed species and their BBCH growth stage at spraying were Brachiaria platyphylla (BRAPP; growth stage 13-14) or Brachiaria plantaginea (BRAPL; growth stage 13-14), Commelina benghalensis (COMBE; growth stage 13), Digitaria sanguinalis (DIGSA; growth stage 14), and Polygonum convolvulus (POLCO; growth stage 13-14). Each spray test was replicated three times.
The test plants were then grown in a glasshouse under controlled conditions (at 24/18° C. day/night; 16 hours light; 65% humidity) and watered twice a day. The efficacy of the herbicide was assessed visually and expressed as a percentage of the leaf area killed. Samples were assessed at a time period of 21 days following application. The results shown in Table 3 below are mean averages over the two rates of mesotrione and the three replicates.

[7] = system: Alopecurus myosuroides (ALOMY); assay: Adjuvant efficacy with pinoxaden, glasshouse spray test; settings: pinoxaden EC, mean over 7.5 and 15 g/ha and 3 replicates; adjuvant 0.2% v/v (none in No Adjuvant rows); % leaf area killed, 21 days after application; Tests 1-4 separate runs
Method: as §1, with “pinoxaden” for “nicosulfuron”, “species,” for “species”, “20/16°” for “24/18°”, “Pinoxaden” for “Nicosulfuron”, “EC (emulsifiable concentrate)” for “WG (water dispersible granule)”
(§3) The spray tests were also carried out using pinoxaden in conjunction with adjuvants 1-12. The adjuvants were added to the spray solution at a rate of 0.2% v/v unless otherwise stated. All spray solutions also contained 10% w/w of iso-Propanol. The weed species and their BBCH growth stage at spraying were Avena fatua (AVEFA; growth stage 12), Lolium perenne (LOLPE; growth stage 13), Alopecurus myosuroides (ALOMY; growth stage 13), and Setaria viridis (SETVI; growth stage 13-14). Each spray test was replicated three times. The test plants were then grown in a glasshouse under controlled conditions (at 20/16° C. day/night; 16 hours light; 65% humidity) and watered twice a day. The efficacy of the herbicide was assessed visually and expressed as a percentage of the leaf area killed. Samples were assessed at a time period of 21 days following application. The results shown in Table 4 below are mean averages over the two rates of pinoxaden, and the three replicates.

[8] = system: Avena fatua (AVEFA); assay: as above; settings: pinoxaden EC, mean over 7.5 and 15 g/ha and 3 replicates; adjuvant 0.2% v/v (none in No Adjuvant rows); % leaf area killed, 21 days after application; Tests 1-4 separate runs
Method: as §1, with “pinoxaden” for “nicosulfuron”, “species,” for “species”, “20/16°” for “24/18°”, “Pinoxaden” for “Nicosulfuron”, “EC (emulsifiable concentrate)” for “WG (water dispersible granule)”
as §3

[9] = system: Lolium perenne (LOLPE); assay: as above; settings: pinoxaden EC, mean over 7.5 and 15 g/ha and 3 replicates; adjuvant 0.2% v/v (none in No Adjuvant rows); % leaf area killed, 21 days after application; Tests 1-4 separate runs
Method: as §1, with “pinoxaden” for “nicosulfuron”, “species,” for “species”, “20/16°” for “24/18°”, “Pinoxaden” for “Nicosulfuron”, “EC (emulsifiable concentrate)” for “WG (water dispersible granule)”
as §3

[10] = system: Setaria viridis (SETVI); assay: as above; settings: pinoxaden EC, mean over 7.5 and 15 g/ha and 3 replicates; adjuvant 0.2% v/v (none in No Adjuvant rows); % leaf area killed, 21 days after application; Tests 1-4 separate runs
Method: as §1, with “pinoxaden” for “nicosulfuron”, “species,” for “species”, “20/16°” for “24/18°”, “Pinoxaden” for “Nicosulfuron”, “EC (emulsifiable concentrate)” for “WG (water dispersible granule)”
as §3

[11] = system: Septoria tritici; assay: Adjuvant efficacy with isopyrazam on inoculated wheat plants; settings: isopyrazam SC, mean over 6.5, 16, 40 and 100 mg/l and 4 replicates, sprayed 4 days after inoculation, percentage of leaf area infected 17-18 days after infection, Tests 1-3 separate runs
Method: Adjuvants 6, 7, 8 and 10 were tested as adjuvants for agrochemical compositions comprising isopyrazam.
Two week old wheat plants were inoculated with the fungus Septoria tritici. […] All spray solutions also contained 10% v/v of iso-Propanol. The leaves of the plants were assessed visually 17-18 days after infection and the damage was expressed as the percentage of the leaf area infected. Each spray test was replicated four times across the four application rates.
The results shown in Table 6 below are mean averages over the four rates of isopyrazam and the four replicates.

[12] = system: Septoria tritici; assay: Adjuvant efficacy with epoxiconazole on inoculated wheat plants; settings: epoxiconazole SC 1.5, 4, 8.5 and 20 mg/l, 4 replicates, adjuvant 0.1% v/v (none in No Adjuvant rows), sprayed 4 days after inoculation, percentage of leaf area infected 17-18 days after infection, Tests 1-3 separate runs
Method: Adjuvants 6, 7, 8 and 10 were tested as adjuvants for agrochemical compositions comprising epoxiconazole.
Two week old wheat plants were inoculated with the fungus Septoria tritici. […] All spray solutions also contained 10% v/v of iso-Propanol. The leaves of the plants were assessed visually 17-18 days after infection and the damage was expressed as the percentage of the leaf area infected.

CCCCCCCCC=CCCCCCCCCOc1cc(OCCOCCOCCOCCOCCOCCOCCOCCOCCOCCOC)ncn1 [Adjuvant 10]
Mean % Herbicidal Activity ABUTH [1]: 58%
Mean % Herbicidal Activity CHEAL [2]: 80%
Mean % Herbicidal Activity DIGSA [3]: 88%
Mean % Herbicidal Activity SETVI [4]: 97%
Mean % Herbicidal Activity BRAPP [5]: 61%
Mean % Herbicidal Activity Average over all Species [6]: 80%
Mean % Herbicidal Activity ALOMY [7]: 9%
Mean % Herbicidal Activity AVEFA [8]: 80%
Mean % Herbicidal Activity LOLPE [9]: 25%
Mean % Herbicidal Activity SETVI [10]: 89%
Disease Damage Mean [11]: 17% and 14%
Disease Damage Mean [12]: 26%
